PMC7734798 (ACS Medicinal Chemistry Letters, 2020)
Where “and” joins values, the source holds several entries; their conditions need not be identical. Equal values may be shown once. Read-outs that look alike come from different tables or passages of the source.

Legend:
Oli-Neu cells = assay: Oli-Neu cell proliferation and differentiation assay: cell counting and measure of filaments; assay type: cell-based, mouse; conditions: 5 μM, 48 h
Description: OPC proliferation and migration to the CNS injury site as well as their differentiation are critical steps toward remyelination in MS. HDAC activity plays a crucial role in OPC proliferation/differentiation; therefore, HDAC modulation is widely considered a promising therapeutic target for MS.[30] […] Therefore, we tested the effect of our compounds on OPC proliferation and differentiation, through cell counting, measure of filaments, and analysis of proliferation/differentiation markers (Figure 7).
Oli-Neu cells were grown in SATO medium (DMEM medium, 2 mM glutamine, 10 μg/ml insulin, 5.5 μg/ml transferrin, 38.72 nM sodium selenite, 100 µM putrescine, 520 nM L-thyroxine (T4), 500 nM triiodo-L-thyronine (T3), 200 nM progesterone, 25 μg/ml of gentamycin) supplemented with 1% heat-inactivated horse serum (HS) in a humidified, 5% CO2 incubator at 37°C. Cell culture medium and all chemicals were from Sigma-Aldrich, except for insulin-transferrin-sodium selenite 100X supplement (Life Technologies Corporation). Cells were plated on 96 well plates, previously coated with 10 μg/mL poly-L-lysine (Sigma-Aldrich; 10 μg/ml) at the density of 2.5 x 10 4/0.2 mL medium/well and treated with increasing concentrations of the compounds (0.5, 1, 5 and 10 μM). […]
Oli-Neu cells proliferation and differentiation assay
48 hours, for cell counting and measure of filaments, 5 random images for each condition were acquired with an Eclipse TS100 (Nikon) microscope using a 10X objective. Cells number and filament length were measured with Fiji ImageJ2 software. […]

[1] = system: human liver carcinoma immortalized cell line (HepG2); conditions: for cell survival/death in HepG2 cells, % mean ± SE of controls (MTT): 24 h treatment; for hepatotoxicity in HepG2 (in words): even at the higher tested concentrations
[2] = system: primary rat cerebellar granule neurons (CGNs); assay: Neuroprotection assay: glutamate/glycine excitotoxicity in differentiated CGNs (MTT); assay type: cell-based; conditions: CGNs 8 DIV
Procedure: Several lines of evidence point to MS as not only an inflammatory but also a neurodegenerative disease. Thus, neuroprotective agents may hold promise for MS therapy.[32] […] Thus, to test the neuroprotective capability of 1 and 2, we used a glutamate excitotoxicity model of primary cultural neurons. At day 8 in vitro (8 DIV), CGNs were pretreated with the compounds for 6 h, before adding 100 μM glutamate/10 μM glycine insult for further 24 h. […] Furthermore, while reference compounds (alone and in combination) increase glutamate/glycine excitotoxicity at higher doses, 1 was not toxic even at the highest concentration tested (25 μM). […]
committee (Protocol n° 17-72-1212) and performed according to Italian and European Community laws on the use of animals for experimental purposes. […]
heat-inactivated FBS (Aurogene), 2 mM glutamine, 100 μM gentamicin sulphate and 25 mM KCl (all from Sigma-Aldrich). […] The viability of CGNs exposed to increasing concentrations of the studied compounds (0, 5, 10 and 25 μM) for 24 h was evaluated through the MTT assay. […] Following a 20 min incubation at 37 °C in the dark, the MTT precipitate was dissolved in 0.1 M Tris-HCl pH 7.5 buffer containing 5% Triton X-100 (all from Sigma-Aldrich) and absorbance was read at 570 nm in a multiplate spectophotometric reader (Bio-Rad). […] After 24 hours, neuronal survival has been evaluated through MTT assay. […]

| SMILES | Oli-Neu cell number (Oli-Neu cells) | Oli-Neu filament length (Oli-Neu cells) | cell survival/death in HepG2 cells, % mean ± SE of controls (MTT) ([1]; 5 μM) | cell survival/death in HepG2 cells, % mean ± SE of controls (MTT) ([1]; 10 μM) | cell survival/death in HepG2 cells, % mean ± SE of controls (MTT) ([1]; 25 μM) | cell survival/death in HepG2 cells, % mean ± SE of controls (MTT) ([1]; 50 μM) | hepatotoxicity in HepG2 (in words) [1] | toxicity under glutamate/glycine excitotoxicity at higher doses ([2]; 100 μM glutamate/10 μM glycine, highest concentration tested 25 μM) | neuroprotection against glutamatergic excitotoxicity (MTT) ([2]; 6 h pretreatment + 24 h with 100 μM glutamate/10 μM glycine, especially at 5 and 10 μM) |
| --- | --- | --- | --- | --- | --- | --- | --- | --- | --- |
| CC/C=C\C/C=C\C/C=C\CCCCCCCC(=O)NCCOC(=O)C(CCC)CCC [compound 2] | decrease cell number | parallel increase in filament length | 102 ± 10% | 104 ± 4% | 84 ± 6% and > 80% | 80 ± 9% | low hepatotoxicity |  |  |
| CC/C=C\C/C=C\C/C=C\CCCCCCCC(=O)NCCNC(=O)C(CCC)CCC [compound 1] | decrease cell number | parallel increase in filament length | 87 ± 13% | 93 ± 5% | 81 ± 10% and > 80% | 64 ± 8% | low hepatotoxicity | not toxic | more neuroprotective |
